Results from patent US20260209297A1, “ANTIMICROBIAL PEPTIDES AND MODIFICATIONS THEREOF” (priority 2022, published 2026).
Converted amounts (≈) assume the structure as drawn. Like-named read-outs stand apart in the source and are kept apart here. Positions of bridges follow the written chain, without caps; N, C: chain ends. Non-standard residues stand in square brackets, D forms with d. Residues, ends and D or L forms follow the SMILES beside them. Dab = NCC[C@H](N)C(=O)O

Tests used:
[1] = tested on: Colletotrichum gloeosporioides; test: 96-well plate MIC assay with resazurin viability; type: cell-based; conditions: Table 19; unit not given (peptide concentrations in μM)
Alternaria alternata = test: 96-well plate MIC assay with resazurin viability; type: cell-based; conditions: Table 19; unit not given (peptide concentrations in μM)
B. cinerea [2] = test: Semi-in planta gray mold assay on detached Nicotiana benthamiana leaves (drop inoculation); type: in vivo, Botrytis cinerea; conditions: for reducing gray mold disease symptoms (lesion sizes): detached N. benthamiana leaves, 1.5 μM, 3 μM and 6 μM, 48 h
Botrytis cinerea T-4 = conditions: Table 18
Cercospora sojina = test: 96-well plate MIC assay with resazurin viability; type: cell-based; conditions: Table 19; unit not given (peptide concentrations in μM)
Candida albicans = conditions: for MIC values (μg/ml) 100%: Table 8
B. cinerea [3] = test: MIC antifungal assay in SFM culture media (with or without added salts); type: cell-based, Botrytis cinerea; conditions: for antifungal activity relative to the wild-type GMA4C_AC control, B. cinerea: in vitro, low cationic conditions
F. graminearum = type: cell-based, Fusarium graminearum; conditions: in vitro, low cationic conditions
F. oxysporum = test: MIC antifungal assay in SFM culture media; type: cell-based; conditions: in vitro, low cationic conditions
C. albicans = test: Peptide or protein/Fluconazole combination MIC and FICI; conditions: combination with Fluconazole
Candida auris = conditions: for MIC values (μg/ml) 100%: Table 8
P. capsici = test: MIC antifungal assay in SFM culture media; type: cell-based; conditions: in vitro, low cationic conditions
[4] = tested on: Fusarium graminearum PH-1; type: cell-based; conditions: for F. graminearum PH-1 MIC Day 1: Fusarium graminearum PH-1, 96-well, resazurin viability
Botrytis cinerea T4 = type: cell-based
C. parapsilosis = test: MIC, CLSI M27/M38, half-strength potato dextrose broth; type: cell-based, Candida parapsilosis; conditions: C. parapsilosis ATCC 22019; Table 8
Description: (§1) MICs were determined at 24-72 hours.

Coccidioides sp. = type: cell-based; conditions: Table 8
Fusarium (F. oxysporum) = test: MIC, CLSI M27/M38, half-strength potato dextrose broth; type: cell-based; conditions: Table 8
Description: as §1

Fusarium (F. solani) = test: as above; type: cell-based; conditions: Fusarium F4 (F. solani); Table 8
Description: as §1

CC[C@H](C)[C@@H]1NC(=O)[C@H](CCCNC(=N)N)NC(=O)[C@H]([C@@H](C)O)NC(=O)[C@H](Cc2c[nH]c3ccccc23)NC(=O)[C@H](Cc2ccc(O)cc2)NC(=O)[C@H](Cc2c[nH]c3ccccc23)NC(=O)[C@H](CCCNC(=N)N)NC(=O)[C@H](CCCNC(=N)N)NC(=O)[C@H](CCCNC(=N)N)NC(=O)[C@H](Cc2ccccc2)NC(=O)CNC(=O)[C@H](CCCCN)NC(=O)[C@@H](NC(=O)[C@H](CCCNC(=N)N)NC(=O)CNC(=O)CN)CSSC[C@@H](C(N)=O)NC1=O [GMA4C_V10] (H-GGRCKGFRRRWYWTRIC-NH2; disulfide 4-17; N-terminus assumed)
MIC Colletotrichum gloeosporioides [1]: >12
MIC Alternaria alternata (Alternaria alternata): >12
reducing gray mold disease symptoms (lesion sizes) (B. cinerea [2]): effective
reducing the symptoms of gray mold, comparison (B. cinerea [2]; low concentrations of 1.5 μM and 3 μM, compared with GMA4C_V9): more effective
MIC (μM) SFM (Botrytis cinerea T-4): 3 µM (≈ 6.6 µg/mL)
MIC (μM) (SFM + 2 mM CaCl2) (Botrytis cinerea T-4): 3 µM
MIC (μM) (SFM + 100 mM KCl) (Botrytis cinerea T-4): 3 to 6 µM
MIC (μM) (SFM + 100 mM NaCl) (Botrytis cinerea T-4): 3 µM
MIC Cercospora sojina (Cercospora sojina): 6

CC[C@H](C)[C@@H]1NC(=O)[C@H](CCCNC(=N)N)NC(=O)[C@H]([C@@H](C)O)NC(=O)[C@H](Cc2ccccc2)NC(=O)[C@H](Cc2c[nH]c3ccccc23)NC(=O)[C@H](Cc2ccccc2)NC(=O)[C@H](CCCNC(=N)N)NC(=O)[C@H](CCCNC(=N)N)NC(=O)[C@H](CC(C)C)NC(=O)[C@H](Cc2ccccc2)NC(=O)CNC(=O)[C@H](CCCCN)NC(=O)[C@@H](NC(=O)[C@H](CCCNC(=N)N)NC(=O)CNC(=O)CN)CSSC[C@@H](C(N)=O)NC1=O [GMA4C_V9] (H-GGRCKGFLRRFWFTRIC-NH2; disulfide 4-17; N-terminus assumed)
MIC Colletotrichum gloeosporioides [1]: >12
MIC Alternaria alternata (Alternaria alternata): >12
reducing gray mold disease symptoms (lesion sizes) (B. cinerea [2]): effective
MIC (μM) SFM (Botrytis cinerea T-4): 3 µM (≈ 6.3 µg/mL)
MIC (μM) (SFM + 2 mM CaCl2) (Botrytis cinerea T-4): 12 µM
MIC (μM) (SFM + 100 mM NaCl) (Botrytis cinerea T-4): 3 µM
MIC Cercospora sojina (Cercospora sojina): 6

CC[C@H](C)[C@H](NC(=O)[C@H](CCCNC(=N)N)NC(=O)[C@@H](NC(=O)[C@@H](NC(=O)[C@H](Cc1ccccc1)NC(=O)[C@@H](NC(=O)[C@H](CCCNC(=N)N)NC(=O)[C@H](CCCNC(=N)N)NC(=O)[C@H](CCCNC(=N)N)NC(=O)[C@H](Cc1ccccc1)NC(=O)CNC(=O)[C@H](CCCNC(=N)N)NC(=O)[C@H](CS)NC(=O)[C@H](CCCNC(=N)N)NC(=O)CNC(=O)CN)C(C)C)C(C)C)[C@@H](C)O)C(=O)N[C@@H](CS)C(N)=O [GMA4C_V3A] (H-GGRCRGFRRRVFVTRIC-NH2; N-terminus assumed)
Candida albicans (33795) MIC (Candida albicans): 2.8 µM
antifungal activity relative to the wild-type GMA4C_AC control, B. cinerea (B. cinerea [3]): equivalent
antifungal activity relative to the wild-type GMA4C_AC control, F. graminearum (F. graminearum): equivalent
MIC in μM Aspergillus fumigatus (36843) (Aspergillus fumigatus): 11.2 µM (≈ 22.8 µg/mL)
antifungal activity relative to the wild-type GMA4C_AC control, F. oxysporum (F. oxysporum): equivalent
Interpretation (C. albicans): Conclusion: GMA4C_v3 shows synergistic enhancement of antifungal activity against drug resistant C. albicans in combination with Fluconazole
Candida auris (38883) MIC (Candida auris): 5.6 µM
antifungal activity relative to the wild-type GMA4C_AC control, P. capsici (P. capsici): equivalent

NCC[C@H](NC(=O)CNC(=O)[C@@H](N)Cc1ccccc1)C(=O)N[C@@H](CS)C(=O)N[C@@H](CCN)C(=O)NCC(=O)N[C@@H](Cc1ccccc1)C(=O)N[C@@H](CCN)C(=O)N[C@@H](CCN)C(=O)N[C@@H](CCN)C(=O)N[C@@H](CS)C(=O)N[C@@H](Cc1ccccc1)C(=O)N[C@@H](CS)C(=O)N[C@@H](Cc1c[nH]c2ccccc12)C(=O)N[C@@H](CCN)C(=O)N[C@@H](Cc1c[nH]c2ccccc12)C(=O)N[C@@H](CS)C(N)=O [GMA4C_V5A, FG(Dab)C(Dab)GF(Dab)(Dab)(Dab)CFCW(Dab)WC-NH2] (H-FG[Dab]C[Dab]GF[Dab][Dab][Dab]CFCW[Dab]WC-NH2; N-terminus assumed)
antifungal activity relative to the wild-type GMA4C_AC control, B. cinerea (B. cinerea [3]): equivalent
antifungal activity relative to the wild-type GMA4C_AC control, F. graminearum (F. graminearum): equivalent
antifungal activity relative to the wild-type GMA4C_AC control, F. oxysporum (F. oxysporum): equivalent
antifungal activity relative to the wild-type GMA4C_AC control, P. capsici (P. capsici): equivalent

N=C(N)NCCC[C@H](NC(=O)CNC(=O)[C@@H](N)Cc1ccccc1)C(=O)N[C@@H](CS)C(=O)N[C@@H](CCCNC(=N)N)C(=O)NCC(=O)N[C@@H](Cc1ccccc1)C(=O)N[C@@H](CCCNC(=N)N)C(=O)N[C@@H](CCCNC(=N)N)C(=O)N[C@@H](CCCNC(=N)N)C(=O)N[C@@H](CS)C(=O)N[C@@H](Cc1ccccc1)C(=O)N[C@@H](CS)C(=O)N[C@@H](Cc1c[nH]c2ccccc12)C(=O)N[C@@H](CCCNC(=N)N)C(=O)N[C@@H](Cc1c[nH]c2ccccc12)C(=O)N[C@@H](CS)C(N)=O [GMA4C_V4A] (H-FGRCRGFRRRCFCWRWC-NH2; N-terminus assumed)
fungal growth inhibition at 6 μM (B. cinerea [3]; B. cinerea, in presence of 2 mM CaCl2, 6 μM): inhibit fungal growth
potency of activity relative to GMA4C_AC (B. cinerea [3]; B. cinerea, in presence of 100 mM NaCl or 100 mM KCl): 2 fold
antifungal activity relative to the wild-type GMA4C_AC control, B. cinerea (B. cinerea [3]): equivalent
antifungal activity relative to the wild-type GMA4C_AC control, F. graminearum (F. graminearum): equivalent
antifungal activity relative to the wild-type GMA4C_AC control, F. oxysporum (F. oxysporum): equivalent
antifungal activity relative to the wild-type GMA4C_AC control, P. capsici (P. capsici): equivalent

PD81.1.1: SEQ ID NO: 534 with N-terminal alanine; Pinus sylvestris wild-type defensin, expressed in Pichia pastoris (RMCKTPSGKFKGYCVSSTNCKNVCRTEGFPTGSCDFHVASRKCYCYKPC; N-terminal alanine added; listed as Pinus sylvestris)
F. graminearum PH-1 MIC Day 1 [4]: 1.5 µM
MIC against B. cinerea (Botrytis cinerea T4): 1 µM

CC[C@H](C)[C@H](NC(=O)[C@H](CCCNC(=N)N)NC(=O)[C@@H](NC(=O)[C@H](CS)NC(=O)[C@H](Cc1ccccc1)NC(=O)[C@H](CS)NC(=O)[C@H](CCCNC(=N)N)NC(=O)[C@H](CCCNC(=N)N)NC(=O)[C@H](CCCNC(=N)N)NC(=O)[C@H](Cc1ccccc1)NC(=O)CNC(=O)[C@H](CCCNC(=N)N)NC(=O)[C@H](CS)NC(=O)[C@H](CCCNC(=N)N)NC(=O)CNC(=O)CN)[C@@H](C)O)C(=O)N[C@@H](CS)C(N)=O [GMA4C_V2A] (H-GGRCRGFRRRCFCTRIC-NH2; N-terminus assumed)
MIC values (μg/ml) 100% (Candida albicans; Candida albicans ATCC 90028): 16 µg/mL (≈ 7.82 µM)
MIC values (μg/ml) 100% (Candida albicans; Candida albicans CA3): 16 µg/mL (≈ 7.82 µM)
MIC values (μg/ml) 100% (Candida albicans; Candida albicans SC5314): 16 µg/mL (≈ 7.82 µM)
antifungal activity relative to the wild-type GMA4C_AC control, B. cinerea (B. cinerea [3]): two-fold reduction
antifungal activity relative to the wild-type GMA4C_AC control, F. graminearum (F. graminearum): two-fold reduction
MIC values (μg/ml) 100% (C. parapsilosis): 8 µg/mL (≈ 3.91 µM)
MIC values (μg/ml) 100% (Aspergillus fumigatus; Aspergillus fumigatus AF293, Table 8): 32 µg/mL (≈ 15.6 µM)
MIC values (μg/ml) 100% (Coccidioides sp.; Coccidioides sp. Cocci1): 8 µg/mL (≈ 3.91 µM)
MIC values (μg/ml) 100% (Coccidioides sp.; Coccidioides sp. Cocci2): 16 µg/mL (≈ 7.82 µM)
MIC values (μg/ml) 100% (Coccidioides sp.; Coccidioides sp. DI17-143): 16 µg/mL (≈ 7.82 µM)
MIC values (μg/ml) 100% (Fusarium (F. oxysporum); Fusarium F1 (F. oxysporum)): 8 µg/mL (≈ 3.91 µM)
MIC values (μg/ml) 100% (Fusarium (F. oxysporum); Fusarium F2 (F. oxysporum)): 16 µg/mL (≈ 7.82 µM)
MIC values (μg/ml) 100% (Fusarium (F. solani)): 8 µg/mL (≈ 3.91 µM)
MIC values (μg/ml) 100% (Candida auris; Candida auris DI17-46): 16 µg/mL (≈ 7.82 µM)
MIC values (μg/ml) 100% (Candida auris; Candida auris DI17-47): 16 µg/mL (≈ 7.82 µM)
MIC values (μg/ml) 100% (Candida auris; Candida auris DI17-48): 16 µg/mL (≈ 7.82 µM)

C[C@@H]1[C@H](O)[C@@H](C)/C=C/C=C/C=C/C=C/C=C/C=C/C=C/[C@H](O[C@@H]2O[C@H](C)[C@@H](O)[C@H](N)[C@@H]2O)C[C@@H]2O[C@](O)(C[C@@H](O)C[C@@H](O)[C@H](O)CC[C@@H](O)C[C@@H](O)CC(=O)O[C@H]1C)C[C@H](O)[C@H]2C(=O)O [Amphotericin-B, reference compound]
MIC against F. graminearum ([4]; F. graminearum PH-1, Example 7): 6 µM (≈ 5.54 µg/mL)
F. graminearum PH-1 MIC Day 1 [4]: 6 µM
MIC against B. cinerea (Botrytis cinerea T4): 3 µM (≈ 2.77 µg/mL)
